Tests used:
[1] = xn = mol fraction of the nth substance listed; details: Liquid
[2] = Liquid

[C-]#[O+] [carbon monoxide] + COC(=O)OC
[1], Pycnometric method
Details | mass density [kg/m3]
293 K, x1 = 0.0547 | 1078
293 K, x1 = 0.0679 | 1036.5
293 K, x1 = 0.0838 | 992.5
293 K, x1 = 0.1138 | 963.5
293 K, x1 = 0.1413 | 919.7
293 K, x1 = 0.1606 | 865.9
313 K, x1 = 0.0534 | 966.4
313 K, x1 = 0.0646 | 948
313 K, x1 = 0.0868 | 910.2
313 K, x1 = 0.1087 | 885.7
313 K, x1 = 0.1199 | 834.8
313 K, x1 = 0.1511 | 786.6
353 K, x1 = 0.0485 | 868.7
353 K, x1 = 0.0677 | 853
353 K, x1 = 0.0752 | 847.4
353 K, x1 = 0.0873 | 802.4
353 K, x1 = 0.0936 | 773.3
353 K, x1 = 0.1204 | 720.7
373 K, x1 = 0.0418 | 841.2
373 K, x1 = 0.0545 | 829.8
373 K, x1 = 0.0723 | 801.3
373 K, x1 = 0.084 | 786.7
373 K, x1 = 0.0943 | 754.3
373 K, x1 = 0.1095 | 710.1

COC [dimethyl ether]
[2]
Details | vapor or sublimation pressure [kPa]
293 K | 520
313 K | 900
353 K | 2240
373 K | 3260

O=O [oxygen] + COC(=O)OC
[1], determining using the ratio of the masses to the volume of the sample.
Details | mass density [kg/m3]
293.15 K, x1 = 0.0612 | 1087.6
293.15 K, x1 = 0.0791 | 1062.4
293.15 K, x1 = 0.097 | 1032
293.15 K, x1 = 0.1266 | 984.7
293.15 K, x1 = 0.1605 | 931.3
293.15 K, x1 = 0.1977 | 838
313 K, x1 = 0.0506 | 1056.6
313 K, x1 = 0.061 | 1014.8
313 K, x1 = 0.0748 | 960.2
313 K, x1 = 0.099 | 885.7
313 K, x1 = 0.1307 | 824.8
313 K, x1 = 0.175 | 766.6
353 K, x1 = 0.0412 | 988.5
353 K, x1 = 0.0523 | 947.8
353 K, x1 = 0.0614 | 882.2
353 K, x1 = 0.0733 | 826.7
353 K, x1 = 0.082 | 728.8
353 K, x1 = 0.1018 | 685.3
373 K, x1 = 0.0233 | 935.5
373 K, x1 = 0.0347 | 900.2
373 K, x1 = 0.0539 | 841.3
373 K, x1 = 0.071 | 798.9
373 K, x1 = 0.0858 | 712.5
373 K, x1 = 0.0953 | 652.5

COC(=O)OC [dimethyl carbonate]
[2]
Details | vapor or sublimation pressure [kPa]
293 K | 10
313 K | 20
353 K | 70
373 K | 140

— the NIST ThermoML archive (doi:10.1021/je8002282)
